Data on 28 molecules can be found in patent US10047104B2, “Bicyclic heterocyclyl derivatives as IRAK4 inhibitors” (Aurigene Discovery Technologies Limited, priority 2014, dated 2018).

Each structure is given as a SMILES string. pIC50: −log10 of the molar value. Counter-ions that a name gives are not always drawn.

The experiment addresses T1, recombinant IRAK-4 kinase (Homo sapiens, UniProt Q9NWZ3).
T1 construct: purchased Millipore, USA
T1 sequence (Q9NWZ3 1-460): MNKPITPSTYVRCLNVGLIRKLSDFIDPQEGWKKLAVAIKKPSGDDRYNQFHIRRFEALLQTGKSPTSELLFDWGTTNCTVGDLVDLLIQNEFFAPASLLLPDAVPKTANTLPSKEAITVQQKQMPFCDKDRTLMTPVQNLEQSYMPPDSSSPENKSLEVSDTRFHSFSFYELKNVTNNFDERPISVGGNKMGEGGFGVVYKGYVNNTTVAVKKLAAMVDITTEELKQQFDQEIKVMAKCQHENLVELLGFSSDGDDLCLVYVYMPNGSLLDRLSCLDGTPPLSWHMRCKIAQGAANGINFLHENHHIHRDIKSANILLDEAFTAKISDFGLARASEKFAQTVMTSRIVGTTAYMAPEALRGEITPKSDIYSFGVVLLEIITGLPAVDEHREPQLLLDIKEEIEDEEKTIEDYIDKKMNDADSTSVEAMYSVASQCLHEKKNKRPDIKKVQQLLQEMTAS
Nature of the experiment: IRAK-4 Biochemical Assay (TR-FRET). The settings on record: 5 ng IRAK-4 kinase, 100 nM Biotin Histone H3, 20 μM ATP, 30 minutes pre-incubation, read-out: IC50 values for IRAK4 activity. Put shortly:
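Recombinant IRAK-4 (5 ng) pre-incubated with compound 30 min at room temperature in Tris-HCl pH 7.5 with MgCl2/MnCl2, then 100 nM biotin-histone H3 and 20 μM ATP added for 30 min. Stopped with EDTA; phospho-Ser10 read by TR-FRET (Eu-antibody/APC-streptavidin).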
The term pIC50 denotes −log10 of the IC50, conventionally taken in molar units. On to `Cc1cc(-c2ccc(C(=O)Nc3cc4sc(N5CCOCC5)nc4nc3N3CC[C@H](O)C3)o2)ccn1` [Example 82, (S)—N-(5-(3-hydroxypyrrolidin-1-yl)-2-morpholinothiazolo[4,5-b]pyridin-6-yl)-5-(2-methylpyridin-4-yl)furan-2-carboxamide], for which the negative logarithm of the IC50 (pIC50) is greater than 7.30.
Consider `Cc1cc(-c2nc(C(=O)Nc3cc4sc(N5CCOCC5)nc4nc3N3CCC[C@H](O)C3)co2)ccn1` [Example 83, (S)—N-(5-(3-hydroxypiperidin-1-yl)-2-morpholinothiazolo[4,5-b]pyridin-6-yl)-2-(2-methylpyridin-4-yl)oxazole-4-carboxamide], for which the negative logarithm of the IC50 (pIC50) is greater than 7.30.
For the molecule `Cc1cc(-c2nc(C(=O)Nc3cc4sc(N5CCOCC5)nc4nc3N3CCC(O)CC3)co2)ccn1` [Example 84, N-(5-(4-hydroxypiperidin-1-yl)-2-morpholinothiazolo[4,5-b]pyridin-6-yl)-2-(2-methylpyridin-4-yl)oxazole-4-carboxamide], the pIC50 is greater than 7.30.
Consider `Cc1cc(-c2nc(C(=O)Nc3cc4sc(N5CCOCC5)nc4nc3N3CC[C@@H](O)C3)co2)ccn1` [Example 85, (R)—N-(5-(3-hydroxypyrrolidin-1-yl)-2-morpholinothiazolo[4,5-b]pyridin-6-yl)-2-(2-methylpyridin-4-yl)oxazole-4-carboxamide], for which the negative logarithm of the IC50 (pIC50) is greater than 7.30.
On to `Cc1cc(-c2nc(C(=O)Nc3cc4sc(N5CCCCC5)nc4nc3N3CCC3)co2)ccn1` [Example 87, N-(5-(azetidin-1-yl)-2-(piperidin-1-yl)thiazolo[4,5-b]pyridin-6-yl)-2-(2-methylpyridin-4-yl)oxazole-4-carboxamide], for which the pIC50 was greater than 7.30.
The figure for `Cc1cc(-c2nc(C(=O)Nc3cc4sc(N5CCCCC5)nc4nc3N3CCCC3)co2)ccn1` [Example 88, 2-(2-methylpyridin-4-yl)-N-(2-(piperidin-1-yl)-5-(pyrrolidin-1-yl)thiazolo[4,5-b]pyridin-6-yl)oxazole-4-carboxamide] is greater than 7.30; for `Cc1cc(-c2nc(C(=O)Nc3cc4sc(N5CCOCC5)nc4nc3N3CCCC3)co2)ccn1` [Example 89, 2-(2-methylpyridin-4-yl)-N-(2-morpholino-5-(pyrrolidin-1-yl)thiazolo[4,5-b]pyridin-6-yl)oxazole-4-carboxamide] it is greater than 7.30; for `Cc1cc(-c2ccc(C(=O)Nc3cc4sc(N5CCOCC5)nc4nc3N3CCCCC3)o2)ccn1` [Example 90, 5-(2-methylpyridin-4-yl)-N-(2-morpholino-5-(piperidin-1-yl)thiazolo[4,5-b]pyridin-6-yl)furan-2-carboxamide] it is greater than 7.30.
The figure for `Cc1cc(-c2nc(C(=O)Nc3cc4sc(N5CCOCC5)nc4nc3N3CCCCCC3)co2)ccn1` [Example 91, N-(5-(azepan-1-yl)-2-morpholinothiazolo[4,5-b]pyridin-6-yl)-2-(2-methylpyridin-4-yl)oxazole-4-carboxamide] is greater than 7.30; for `Nc1cc(-c2nc(C(=O)Nc3cc4sc(N5CCOCC5)nc4nc3N3CCCCC3)co2)ccn1` [Example 92, 2-(2-aminopyridin-4-yl)-N-(2-morpholino-5-(piperidin-1-yl)thiazolo[4,5-b]pyridin-6-yl)oxazole-4-carboxamide hydrochloride] it is greater than 7.30; for `Cc1cc(-c2nc(C(=O)Nc3cc4sc(N5CCOCC5)nc4nc3N3CCC3)co2)ccn1` [Example 93, N-(5-(azetidin-1-yl)-2-morpholinothiazolo[4,5-b]pyridin-6-yl)-2-(2-methylpyridin-4-yl)oxazole-4-carboxamide] it is greater than 7.30.
Consider `Cc1cc(-c2nc(C(=O)Nc3cc4sc(N5CCOCC5)nc4nc3N3CCC[C@@H](O)C3)co2)ccn1` [Example 94, (R)—N-(5-(3-hydroxypiperidin-1-yl)-2-morpholinothiazolo[4,5-b]pyridin-6-yl)-2-(2-methylpyridin-4-yl)oxazole-4-carboxamide], for which the negative logarithm of the IC50 (pIC50) is greater than 7.30.
On to `Cc1cc(-c2ccc(C(=O)Nc3cc4sc(N5CCOCC5)nc4nc3N3CCC[C@@H](O)C3)o2)ccn1` [Example 95, (R)—N-(5-(3-hydroxypiperidin-1-yl)-2-morpholinothiazolo[4,5-b]pyridin-6-yl)-5-(2-methylpyridin-4-yl)furan-2-carboxamide], for which the pIC50 is greater than 7.30.
As to `C[C@H](O)Cn1cc(-c2cccc(C(=O)Nc3cc4sc(N5CCOCC5)nc4nc3N3CCCCC3)n2)cn1` [Example 96, (S)-6-(1-(2-hydroxypropyl)-1H-pyrazol-4-yl)-N-(2-morpholino-5-(piperidin-1-yl)thiazolo[4,5-b]pyridin-6-yl)picolinamide], the pIC50 was greater than 7.30.
For `Cc1cc(-c2ccc(C(=O)Nc3cc4sc(N5CCOCC5)nc4nc3N3CCC(F)CC3)o2)ccn1` [Example 97, N-(5-(4-fluoropiperidin-1-yl)-2-morpholinothiazolo[4,5-b]pyridin-6-yl)-5-(2-methylpyridin-4-yl)furan-2-carboxamide], the pIC50 was greater than 7.30.
The figure for `Cc1cc(-c2nc(C(=O)Nc3cc4sc(N5CCOCC5)nc4nc3N3CCC(F)CC3)co2)ccn1` [Example 98, N-(5-(4-fluoropiperidin-1-yl)-2-morpholinothiazolo[4,5-b]pyridin-6-yl)-2-(2-methylpyridin-4-yl)oxazole-4-carboxamide] is greater than 7.30.
Regarding `Cc1cc(-c2nc(C(=O)Nc3cc4sc(N5CCOCC5)nc4nc3-c3cnn(C)c3)co2)ccn1` [Example 99, N-(5-(1-methyl-1H-pyrazol-4-yl)-2-morpholinothiazolo[4,5-b]pyridin-6-yl)-2-(2-methylpyridin-4-yl)oxazole-4-carboxamide], the pIC50 is greater than 7.30.
For `Cc1cc(-c2nc(C(=O)Nc3cc4sc(N5CCOCC5)nc4nc3-c3cccc(F)c3)co2)ccn1` [Example 100, N-(5-(3-fluorophenyl)-2-morpholinothiazolo[4,5-b]pyridin-6-yl)-2-(2-methylpyridin-4-yl)oxazole-4-carboxamide], the pIC50 is greater than 7.30.
As for `Cc1cc(-c2ccc(C(=O)Nc3cc4sc(N5CCOCC5)nc4nc3N3CCC(O)CC3)o2)ccn1` [Example 101, N-(5-(4-hydroxypiperidin-1-yl)-2-morpholinothiazolo[4,5-b]pyridin-6-yl)-5-(2-methylpyridin-4-yl)furan-2-carboxamide], the figure is greater than 7.30.
The figure for `Cc1cc(-c2ccc(C(=O)Nc3cc4sc(N5CCOCC5)nc4nc3N3CCCC(F)C3)o2)ccn1` (stereo not shown) [Example 102, N-(5-(3-fluoropiperidin-1-yl)-2-morpholinothiazolo[4,5-b]pyridin-6-yl)-5-(2-methylpyridin-4-yl)furan-2-carboxamide] is greater than 7.30; for `COc1ccc(-c2nc(C(=O)Nc3cc4oc(N5CCOCC5)nc4nc3N3CC[C@H](O)C3)co2)cn1` [Example 103, (S)—N-(5-(3-hydroxypyrrolidin-1-yl)-2-morpholinooxazolo[4,5-b]pyridin-6-yl)-2-(6-methoxypyridin-3-yl)oxazole-4-carboxamide] it is less than 7.00.
`COc1ccc(-c2nc(C(=O)Nc3cc4oc(N5CCOCC5)nc4nc3N3CC[C@@H](O)C3)co2)cn1` [Example 105, (R)—N-(5-(3-hydroxypyrrolidin-1-yl)-2-morpholinooxazolo[4,5-b]pyridin-6-yl)-2-(6-methoxypyridin-3-yl)oxazole-4-carboxamide]: the negative-log IC50 (pIC50) is less than 7.00.
As for `COc1ccc(-c2nc(C(=O)Nc3cc4oc(N5CCOCC5)nc4nc3N3CCC(O)C3)co2)cn1` (stereo not shown) [Example 106, N-(5-(3-hydroxypyrrolidin-1-yl)-2-morpholinooxazolo[4,5-b]pyridin-6-yl)-2-(6-methoxypyridin-3-yl)oxazole-4-carboxamide], the figure is less than 7.00; as for `Cc1cc(-c2ccc(C(=O)Nc3cc4oc(N5CCOCC5)nc4nc3N3CC[C@H](O)C3)o2)ccn1` [Example 107, (S)—N-(5-(3-hydroxypyrrolidin-1-yl)-2-morpholinooxazolo[4,5-b]pyridin-6-yl)-5-(2-methylpyridin-4-yl)furan-2-carboxamide], less than 7.00.
Regarding `Cc1cc(-c2ccc(C(=O)Nc3cc4oc(N5CCOCC5)nc4nc3N3CC[C@H](O)C3)s2)ccn1` [Example 108, (S)—N-(5-(3-hydroxypyrrolidin-1-yl)-2-morpholinooxazolo[4,5-b]pyridin-6-yl)-5-(2-methylpyridin-4-yl)thiophene-2-carboxamide], the pIC50 is less than 7.00.
Turning to `Cc1cc(-c2nc(C(=O)Nc3cc4oc(N5CCCCC5)nc4nc3N3CCC3)co2)ccn1` [Example 109, N-(5-(azetidin-1-yl)-2-(piperidin-1-yl)oxazolo[4,5-b]pyridin-6-yl)-2-(2-methylpyridin-4-yl)oxazole-4-carboxamide], the negative-log IC50 (pIC50) is less than 7.00.
Consider `Cc1cc(-c2nc(C(=O)Nc3cc4oc(N5CCOCC5)nc4nc3N3CCC3)co2)ccn1` [Example 110, N-(5-(azetidin-1-yl)-2-morpholinooxazolo[4,5-b]pyridin-6-yl)-2-(2-methylpyridin-4-yl)oxazole-4-carboxamide], for which the negative-log IC50 (pIC50) was greater than 7.30.
Regarding `Cc1cc(-c2nc(C(=O)Nc3cc4oc(N5CCCCC5)nc4nc3N3CCCC3)co2)ccn1` [Example 111, 2-(2-methylpyridin-4-yl)-N-(2-(piperidin-1-yl)-5-(pyrrolidin-1-yl)oxazolo[4,5-b]pyridin-6-yl)oxazole-4-carboxamide], the pIC50 is greater than 7.30.
